Patent US20250084060A1, “PRMT5 INHIBITORS AND METHODS OF TREATMENT” (HANGZHOU UNOGEN BIOTECH, LTD., priority 2022, published 2025)

Columns and labels:
[1] = molecular target: PRMT5 (Homo sapiens (Human), UniProt O14744); assay: PRMT5 Chemiluminescent Assay; type: biochemical; conditions: PRMT5 chemiluminescent assay kit (BPS Bioscience), histone H4 peptide substrate, eight-point dose response
Procedure: The PRMT5 activity is measured by using “PRMT5 Chemiluminescent Assay Kit” from BPS Bioscience, Catalog Number 52002L as per the instructions of the manufacturer. Briefly, the PRMT5 enzyme is incubated with S-adenosylmethionine in a 96-well plate precoated with histone H4 peptide substrate. Next, a highly specific antibody that recognizes methylated R3 residue of Histone H4 is added followed by a horseradkish peroxidase-labeled (HRP-labeled) secondary antibody. Detection is done by the addition of the HRP substrate to produce chemiluminescence that can be measured quantitatively.
Compounds were serially diluted 3-fold and dosed from 10 uM down to 0 uM. Compounds were tested in duplicates to generate an eight-point dose response for the calculation of their IC50s.

[2] = system: Z-138 cells; assay: Z138 Cell Proliferation Assay; type: cell-based; conditions: Z-138 human mantle cell lymphoma cells, 72 hours, CTG readout
Procedure: Human Mantle Cell Lymphoma
Z-138 cells were plated in a 96-well plate in IMDM medium containing 10% Horse Serum and PenStrep at a density of 10,000 cells/well. The plates were incubated at 37° C. in a humidified, 5% CO2 incubator. The next day, serially diluted compounds were added in duplicates for 72 hours. Compounds were tested at 10, 2.5, 0.625, 0.156, 0.039, 0.010 0.002 and 0 uM final concentrations. After 72 hours of compound addition, […] of Promega's CTG assay reagent was added and incubated at room temperature for 10 minutes. Chemiluminescence was read using a GloMax Discover instrument.

[3] = Mouse Pharmacokinetic Studies; type: in vivo; conditions: male BALB/c mice, 3 mg/kg IV tail bolus, plasma
Procedure: Samples were obtained from 3 male BALB/c mice at staggered time points. Each mouse was given a tail bolus injection of 3 mg/kg injection of Compound 70 formulated as an IV solution with DMSO: PEG400: Aqueous solution with 20% HP-β-CD (5:30:65, v:v:v) (adjusted by 1N HCl). Blood samples (collected into lithium heparin tubes) were obtained at predose, and at 5, 15, 30 min and at 1, 2-, 4-, 8- and 24-hour, post injection. Plasma was separated from blood and stored at −20° C. prior to analysis. Samples were assayed by a LC/MS/MS procedure [AB Sciex API 4000; ACE Excel 5 C4 Column (50 mm*2.1 mm); Mobile Phase A: 5 mM NH4OAc (with 0.05% FA); Mobile Phase B: ACN (with 0.1% FA)]. Pharmacokinetic parameters were obtained from plasma concentrations using the R program—PK Package, Basic Non-Compartmental Pharmacokinetics, Thomas Jaki and Martin J. Wolfsegger Version 1.3-3, Jan. 6, 2016.

PRMT5, sequence (O14744 2-637): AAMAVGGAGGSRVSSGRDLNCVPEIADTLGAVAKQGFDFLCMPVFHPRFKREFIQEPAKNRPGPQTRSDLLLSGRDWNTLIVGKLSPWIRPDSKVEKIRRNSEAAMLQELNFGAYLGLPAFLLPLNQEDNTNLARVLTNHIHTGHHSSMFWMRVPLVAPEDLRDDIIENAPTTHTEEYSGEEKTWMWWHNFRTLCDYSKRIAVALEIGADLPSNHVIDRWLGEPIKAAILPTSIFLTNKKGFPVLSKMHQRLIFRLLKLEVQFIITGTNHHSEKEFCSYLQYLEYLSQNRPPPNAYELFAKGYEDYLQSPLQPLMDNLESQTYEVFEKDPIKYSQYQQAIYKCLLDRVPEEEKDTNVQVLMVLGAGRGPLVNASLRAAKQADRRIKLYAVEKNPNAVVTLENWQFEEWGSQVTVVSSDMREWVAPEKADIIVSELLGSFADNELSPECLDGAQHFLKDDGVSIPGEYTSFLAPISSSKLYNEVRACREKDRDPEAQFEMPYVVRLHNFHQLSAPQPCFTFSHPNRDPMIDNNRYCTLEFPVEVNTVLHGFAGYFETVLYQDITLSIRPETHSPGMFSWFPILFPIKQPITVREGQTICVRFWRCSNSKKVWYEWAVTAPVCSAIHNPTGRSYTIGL
PRMT5, sequence (Q9BQA1 2-342 partner): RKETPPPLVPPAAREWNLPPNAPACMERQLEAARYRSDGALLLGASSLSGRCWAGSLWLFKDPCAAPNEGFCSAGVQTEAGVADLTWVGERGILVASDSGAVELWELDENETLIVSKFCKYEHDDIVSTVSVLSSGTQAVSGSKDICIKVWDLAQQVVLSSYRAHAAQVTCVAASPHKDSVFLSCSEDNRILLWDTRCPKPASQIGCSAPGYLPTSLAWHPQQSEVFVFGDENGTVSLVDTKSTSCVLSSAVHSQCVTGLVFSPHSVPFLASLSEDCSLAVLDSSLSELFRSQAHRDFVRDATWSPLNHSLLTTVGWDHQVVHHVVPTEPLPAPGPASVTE

SMILES | IC50 [2] | IC50 [1] | other results
CC(C)Cn1c(=O)n(C[C@H](O)CN2CCc3ccccc3C2)c(=O)c2ccc(Br)cc21 [Compound 70, 7-bromo-3-[(2R)-3-(3,4-dihydro-1H-isoquinolin-2-yl)-2-hydroxy-propyl]-1-isobutyl-quinazoline-2,4-dione] | 673 nM | – | IC50 Values [1]: <0.014 μMolar; AUC(0-inf) [3]: 748 ng·h/mL; C0 [3]: 1520 ng/mL; MRT inf [3]: 1.22 h; clearance [3]: 66.9 mL/min/kg; half-life [3]: 1.56 h; Vd ([3]; read-out: Vss): 4.88 L/kg
O=c1c2ccccc2n(CC2CC2)c(=O)n1C[C@H](O)CN1CCc2ccccc2C1 [Compound 74, 1-(cyclopropylmethyl)-3-[(2R)-3-(3,4-dihydro-1H-isoquinolin-2-yl)-2-hydroxy-propyl]quinazoline-2,4-dione] | 2940 nM | – | IC50 Values [1]: <0.014 μMolar
O=c1c2ccc(Cl)cc2n(CC2CC2)c(=O)n1C[C@H](O)CN1CCc2ccccc2C1 [Compound 78, 7-chloro-1-(cyclopropylmethyl)-3-[(2R)-3-(3,4-dihydro-1H-isoquinolin-2-yl)-2-hydroxy-propyl]quinazoline-2,4-dione] | 1950 nM | 12 nM | –
O=c1c2ccccc2n(CC(F)F)c(=O)n1C[C@H](O)CN1CCc2ccccc2C1 [Compound 79, 1-(2,2-difluoroethyl)-3-[(2R)-3-(3,4-dihydro-1H-isoquinolin-2-yl)-2-hydroxy-propyl]quinazoline-2,4-dione] | 2850 nM | 29 nM | –
O=c1c2ccc(Br)cc2n(CC2CC2)c(=O)n1C[C@H](O)CN1CCc2ccccc2C1 [Compound 80, 7-bromo-1-(cyclopropylmethyl)-3-[(2R)-3-(3,4-dihydro-1H-isoquinolin-2-yl)-2-hydroxy-propyl]quinazoline-2,4-dione] | 1120 nM | 9 nM | –
COc1ccc(-c2ccc3c(=O)n(C[C@H](O)CN4CCc5ccccc5C4)c(=O)n(CC4CC4)c3c2)cn1 [Compound 91, 1-(cyclopropylmethyl)-3-[(2R)-3-(3,4-dihydro-1H-isoquinolin-2-yl)-2-hydroxy-propyl]-7-(6-methoxy-3-pyridyl)quinazoline-2,4-dione] | 1930 nM | 43 nM | –
O=c1c2ccccc2n(CC2CCC2)c(=O)n1C[C@H](O)CN1CCc2ccccc2C1 [Compound 92, 1-(cyclobutylmethyl)-3-[(2R)-3-(3,4-dihydro-1H-isoquinolin-2-yl)-2-hydroxy-propyl]quinazoline-2,4-dione] | 3630 nM | 36 nM | –
O=c1c2cc(-c3ccc(F)cc3)ccc2n(CC(F)F)c(=O)n1C[C@H](O)CN1CCc2ccccc2C1 [Compound 94, 1-(2,2-difluoroethyl)-3-[(2R)-3-(3,4-dihydro-1H-isoquinolin-2-yl)-2-hydroxy-propyl]-6-(4-fluorophenyl)quinazoline-2,4-dione] | 10000 nM | 45 nM | –
